Holding throughout (assay): inhibition of tumour cell growth, NCI panel, 48 h
The subject of test [1] is M14 melanoma.
The subject of test [2] is BT-549 breast.
The subject of test [3] is UO-31 renal.
For test [4], the system named is ACHN renal.
Test [5] concerns HCT-116 colon.
Test [6] deals with HOP-18 NSCLC.
In test [7] the test system is SN12C renal.
Test [8] concerns DLD-1 colon.
Test [9] deals with LXFL 529 NSCLC.
Test [10] deals with COLO 205 colon.
In test [11] the test system is SNB-19 CNS.
Test [12] deals with SF-295 CNS.
Test [13] deals with MOLT-4 leukemia.
In test [14] the test system is DMS 114 small cell lung.
The test system of test [15] is M19-MEL melanoma.
Test [16] concerns KM20L2 colon.

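Compound exposure: 48 hours, 5 concentrations, 96-well plates. Definition used: TGI = concentration required for complete inhibition of growth.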

Drawing on PubChem BioAssay (NCI), this text covers TGI for 2 compounds.

For the compound `O=C1C(Br)=C(Br)C(=O)c2ccc(=O)ccc21`, the TGI turned out to be 32.7 µM in [1]; 44.6 µM in [2]; 34.9 µM in [3]; 33.8 µM in test [4]; 39.1 µM in [5]; 57 µM in test [6]. Besides, the TGI in test [7] is 33.7 µM; in test [8], 46.6 µM; in [9], 31.7 µM; in [10], 26.4 µM; in test [11], greater than 100 µM; in test [12], 50.9 µM. In addition, the TGI in [13] was 23.5 µM; in [14], 39.2 µM; in [15], 32.5 µM; in [16], greater than 100 µM.

For the compound `O=C1c2ccccc2C(=O)c2c(/C=C\N3CCCCC3)ccnc21`, the TGI in test [1] was determined as 1.26 µM; in test [2], 2.22 µM; in test [3] it was 23.4 µM; in test [4], 21.1 µM; in test [5], 5.89 µM; in [6] it was 2.96 µM. For the same compound, the TGI in [7] is 4.14 µM; in test [8], 15.8 µM; in test [9], 15 µM; in test [10] it was 6.06 µM; in [11], 17.1 µM; in [12], 5.25 µM. In addition, the TGI in test [13] was 41.1 µM; in test [14] it was 4.2 µM; in test [15], 0.563 µM; in test [16], 32.6 µM.
